Here are results for 11 compounds from ChEMBL document CHEMBL1201862, “PubChem BioAssay data set” (2004).

Test systems include A498; A549; ACHN; COLO 205; DU-145; Hs-578T; MOLT-4; NCI-H460; OVCAR-3; OVCAR-4; OVCAR-8; PC-3; RPMI-8226; RXF 393; SF-268; SK-MEL-28; T47D; UO-31; HCC 2998; SF-539.
What all share (experiment): growth of human tumour cells (NCI), 48 h

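Cultured in 96-well plates, cells were exposed to test compound for 48 hours across five concentrations. Abbreviation: GI50, concentration required for 50% inhibition of growth.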 Active and inactive are the calls of the source. Rule as the data show it: active = GI50 up to about 1.1 µM and inactive = higher. Some results are limits rather than exact numbers.

As for `c1ccc(NCCSc2nc3ccccc3s2)cc1`, the GI50 in the assay with A498 is 26.5 µM (inactive); with A549 it was 37.7 µM (inactive); with ACHN, 43.8 µM (inactive); with COLO 205, 22.4 µM (inactive); in the assay on DU-145 it was 97.1 µM (inactive); with Hs-578T, > 100 µM (inactive). Moreover, the GI50 is 24.9 µM (inactive) with MOLT-4; 30.9 µM (inactive) with NCI-H460; 88.3 µM (inactive) in the assay on OVCAR-3; 49.8 µM (inactive) in the assay on OVCAR-4; 79.1 µM (inactive) in the assay on OVCAR-8; 55.2 µM (inactive) with PC-3. For the same compound, the GI50 with RPMI-8226 was 26.5 µM (inactive); in the assay with RXF 393, 55.7 µM (inactive); with SF-268, > 100 µM (inactive); in the assay on SK-MEL-28 it was > 100 µM (inactive); in the assay with T47D, 36.2 µM (inactive); with UO-31, 35 µM (inactive).
Consider `CCOC(=O)C(NC(=O)c1ccco1)(Nc1nc2ccc(OCC)cc2s1)C(F)(F)F` (centres undefined), for which the GI50 in the assay on A549 was 28.8 µM (inactive); with ACHN it was 26.8 µM (inactive); with COLO 205, 18.5 µM (inactive); in the assay on DU-145 it was 55.3 µM (inactive); in the assay on HCC 2998, 33.5 µM (inactive); in the assay with Hs-578T, 38.7 µM (inactive). The GI50 with MOLT-4 is 20.1 µM (inactive); in the assay on NCI-H460, 28.1 µM (inactive); in the assay with OVCAR-3 it was 44.9 µM (inactive); with OVCAR-4, 30.1 µM (inactive); with OVCAR-8, 43.9 µM (inactive); in the assay with PC-3, 25.3 µM (inactive). Further, the GI50 with RXF 393 is 7.82 µM (inactive); in the assay on SF-268 it was 41.2 µM (inactive); in the assay with SF-539, 43.2 µM (inactive); in the assay on SK-MEL-28 it was 97.3 µM (inactive); in the assay with T47D it was 26.9 µM (inactive); with UO-31, 4.22 µM (inactive).
As for `CC(=O)c1cccc(Nc2nc3ccc(Cl)cc3c3[nH]c4ccccc4c23)c1`, the GI50 in the assay with A549 is 2.24 µM (inactive); in the assay with ACHN, 4.11 µM (inactive); in the assay on COLO 205, 2.07 µM (inactive); in the assay on DU-145 it was 4.35 µM (inactive); with Hs-578T, 9.35 µM (inactive); in the assay with NCI-H460, 1.71 µM (inactive). In addition, the GI50 with OVCAR-3 was 0.045 µM (active); in the assay with OVCAR-8, 5.12 µM (inactive); in the assay on PC-3, 5.86 µM (inactive); in the assay on RPMI-8226, 6.95 µM (inactive); in the assay with SF-268 it was 3.99 µM (inactive); in the assay with SF-539, 5.28 µM (inactive). Besides, the GI50 in the assay on T47D is 6.52 µM (inactive); with UO-31, 6.07 µM (inactive).
Take `COc1ccc(Cn2c3c(cc(OC(C)=O)c2=O)Cc2ccccc2-3)cc1`: the GI50 in the assay with A549 was 13.9 µM (inactive); with ACHN it was 7.91 µM (inactive); with COLO 205, 20.6 µM (inactive); in the assay with DU-145, 12.2 µM (inactive); in the assay with HCC 2998, 3.33 µM (inactive); with Hs-578T, 20 µM (inactive). Also, the GI50 is 2.88 µM (inactive) in the assay on MOLT-4; 3.97 µM (inactive) in the assay with NCI-H460; 10.7 µM (inactive) in the assay with OVCAR-3; 9.95 µM (inactive) with OVCAR-4; 7.64 µM (inactive) in the assay on OVCAR-8; 8.41 µM (inactive) in the assay with PC-3. Moreover, the GI50 was 8.36 µM (inactive) in the assay with RXF 393; 7.82 µM (inactive) in the assay with SF-268; 8.02 µM (inactive) in the assay on SF-539; 22.1 µM (inactive) in the assay on SK-MEL-28; 14.6 µM (inactive) with T47D; 5.56 µM (inactive) in the assay on UO-31.
Regarding `O=C(CCNC(=O)OCc1ccccc1)OCCCNC(=O)OCc1ccccc1`, the GI50 in the assay with A549, in the assay with ACHN, with COLO 205, in the assay on DU-145, in the assay on HCC 2998 and in the assay with Hs-578T was > 100 µM (inactive) each time. In addition, the GI50 in the assay with MOLT-4, with NCI-H460, in the assay with OVCAR-3, in the assay with OVCAR-4, in the assay with OVCAR-8 and in the assay with PC-3 was > 100 µM (inactive) throughout. Moreover, the GI50 in the assay with RPMI-8226, in the assay on RXF 393, with SF-268, in the assay with SF-539, in the assay on SK-MEL-28 and with T47D was > 100 µM (inactive) throughout. The GI50 in the assay on UO-31 is > 100 µM (inactive).
For `COC1/C=C/C(C)C(C(C)C(OC)C(C)CCC(=O)C(C)C(CC(=O)O)OC)OC(=O)/C=C/C=C(\C)CC(OC)CC2=CC(=O)O[C@H](C2)C(C)C(OC)CC(OC)/C=C/C(C)C(OC)C1` (some centres undefined), the GI50 was 0.24 µM (active) with A498; 0.299 µM (active) in the assay with A549; 0.562 µM (active) with ACHN; 0.0977 µM (active) in the assay on COLO 205; 0.548 µM (active) in the assay with DU-145; 2.62 µM (inactive) in the assay with HCC 2998. Also, the GI50 in the assay with Hs-578T is 0.0759 µM (active); with MOLT-4, 1.46 µM (inactive); in the assay with NCI-H460, 0.195 µM (active); in the assay with OVCAR-3 it was 1.07 µM (active); with OVCAR-4, 0.275 µM (active); with OVCAR-8, 1.14 µM (inactive). Further, the GI50 in the assay with PC-3 was 0.38 µM (active); in the assay with RPMI-8226, 0.219 µM (active); with SF-268 it was 0.0548 µM (active); with SK-MEL-28, 0.101 µM (active); with T47D, 1.16 µM (inactive); with UO-31 it was 0.458 µM (active).
For `CCOC(=O)/C(=N\Nc1ccc(-n2c(C)nc3ccccc3c2=O)cc1)C(C)=O`, the GI50 was 99.3 µM (inactive) in the assay with A498; 49.9 µM (inactive) in the assay on A549; 32.4 µM (inactive) in the assay on ACHN; 39.9 µM (inactive) with COLO 205; 80.2 µM (inactive) in the assay on DU-145; 20.7 µM (inactive) in the assay on Hs-578T. Besides, the GI50 with MOLT-4 is 13.5 µM (inactive); in the assay on NCI-H460, 92.9 µM (inactive); in the assay with OVCAR-3, 21.7 µM (inactive); in the assay on OVCAR-8 it was 19.6 µM (inactive); with PC-3, 34.8 µM (inactive); in the assay on RPMI-8226, 11.6 µM (inactive). Moreover, the GI50 was 25.8 µM (inactive) in the assay with SF-268; 51.8 µM (inactive) in the assay on SF-539; 20.3 µM (inactive) in the assay on SK-MEL-28; 21 µM (inactive) with T47D; 29.1 µM (inactive) with UO-31.
Regarding `CN(C(=O)Cc1cccc(N=C=S)c1)[C@H]1CCCC[C@@H]1N1CCCC1`, the GI50 was 17.2 µM (inactive) in the assay with A498; 16.4 µM (inactive) in the assay with A549; 14.1 µM (inactive) in the assay with ACHN; 11.8 µM (inactive) in the assay on COLO 205; 14.6 µM (inactive) in the assay with DU-145; 25.3 µM (inactive) in the assay with Hs-578T. Moreover, the GI50 with MOLT-4 was 5.24 µM (inactive); with NCI-H460, 16.7 µM (inactive); in the assay with OVCAR-3 it was 14.1 µM (inactive); with OVCAR-4 it was 14.7 µM (inactive); in the assay with OVCAR-8 it was 16.2 µM (inactive); in the assay with PC-3, 15.2 µM (inactive). Also, the GI50 in the assay on RPMI-8226 was 10.9 µM (inactive); in the assay on RXF 393 it was 12.9 µM (inactive); in the assay with SF-268 it was 20 µM (inactive); in the assay on SK-MEL-28, 16.1 µM (inactive); in the assay with T47D, 11.4 µM (inactive); with UO-31 it was 14.7 µM (inactive).
Consider `Cc1cc(=O)oc2c(C)c3oc(CBr)cc3cc12`, for which the GI50 in the assay on A549 was 17.3 µM (inactive); with ACHN, 15.8 µM (inactive); in the assay with COLO 205, 18.4 µM (inactive); in the assay with DU-145, 33.6 µM (inactive); in the assay with HCC 2998, 15.8 µM (inactive); in the assay with Hs-578T it was 35.6 µM (inactive). The GI50 in the assay with MOLT-4 is 14.3 µM (inactive); with NCI-H460 it was 17.2 µM (inactive); with OVCAR-3, 35.7 µM (inactive); in the assay with OVCAR-4 it was 25.8 µM (inactive); in the assay with OVCAR-8 it was 23.8 µM (inactive); in the assay on PC-3, 16.9 µM (inactive). For the same compound, the GI50 was 12.2 µM (inactive) in the assay on RPMI-8226; 19.5 µM (inactive) in the assay with SF-268; 20.9 µM (inactive) in the assay on SF-539; 19.8 µM (inactive) in the assay with SK-MEL-28; 17.3 µM (inactive) in the assay on T47D; 15.9 µM (inactive) with UO-31.
As to `Cn1c(N=P(c2ccccc2)(c2ccccc2)c2ccccc2)c([N+](=O)[O-])c(=O)n(C)c1=O`, the GI50 with A498 is 59.7 µM (inactive); with A549, 40.6 µM (inactive); in the assay with ACHN, 55.7 µM (inactive); in the assay with COLO 205, 44.5 µM (inactive); in the assay with HCC 2998, 71.8 µM (inactive); in the assay on Hs-578T, 25.2 µM (inactive). Besides, the GI50 in the assay with MOLT-4 was 21.2 µM (inactive); with NCI-H460, 43.4 µM (inactive); with OVCAR-3, 30.5 µM (inactive); in the assay on OVCAR-4, 41.1 µM (inactive); in the assay on OVCAR-8 it was 0.991 µM (active); in the assay with PC-3 it was 24.7 µM (inactive). For the same compound, the GI50 in the assay on RPMI-8226 is 34 µM (inactive); in the assay with RXF 393, > 100 µM (inactive); in the assay with SF-268 it was 78.7 µM (inactive); in the assay with SF-539 it was > 100 µM (inactive); in the assay on T47D it was 33.7 µM (inactive); with UO-31, 71 µM (inactive).
Regarding `OCc1cccc(Nc2nc(O)c3[nH]cnc3n2)c1`, the GI50 in the assay with A549, in the assay on ACHN, in the assay on COLO 205, in the assay on DU-145, in the assay with HCC 2998 and with Hs-578T was > 100 µM (inactive) each time. Further, the GI50 in the assay on MOLT-4, in the assay with OVCAR-3, in the assay on OVCAR-4, with OVCAR-8, in the assay with PC-3 and with RPMI-8226 was > 100 µM (inactive) each time. Further, the GI50 with RXF 393, in the assay with SF-268, with SF-539, in the assay on SK-MEL-28, in the assay with T47D and in the assay on UO-31 was > 100 µM (inactive) each time.
